The text below walks through data of ChEMBL document CHEMBL4196115 (ACS Med Chem Lett, 2018).

Data set [1] addresses T1, Muscarinic acetylcholine receptor M1 (Homo sapiens) (UniProt P11229).
T1 sequence (whole entry): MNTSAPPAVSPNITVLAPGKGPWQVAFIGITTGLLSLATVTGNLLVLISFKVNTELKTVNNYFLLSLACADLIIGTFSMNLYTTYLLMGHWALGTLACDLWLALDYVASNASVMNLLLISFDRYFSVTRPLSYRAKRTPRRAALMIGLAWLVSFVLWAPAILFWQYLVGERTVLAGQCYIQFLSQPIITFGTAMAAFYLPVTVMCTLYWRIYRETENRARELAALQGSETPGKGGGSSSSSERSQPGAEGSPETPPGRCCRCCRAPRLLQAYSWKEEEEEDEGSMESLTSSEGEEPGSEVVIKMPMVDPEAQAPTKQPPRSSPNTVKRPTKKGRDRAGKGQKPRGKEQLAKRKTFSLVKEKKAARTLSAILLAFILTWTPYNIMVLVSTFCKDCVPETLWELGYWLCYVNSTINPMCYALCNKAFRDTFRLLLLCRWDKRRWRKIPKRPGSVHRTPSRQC
Kind of data set: Positive allosteric modulation of human muscarinic acetylcholine receptor M1 expressed in CHO cells assessed as increase in acetylcholine-induced calcium mobilization pretreated for 4 mins followed by acetylcholine addition and measured after 4 mins by Fluo-4-AM dye based FLIPR assay. Format: functional, cell-based. Background: Calcium flux is commonly read through the fluorescence of an indicator in the cells.

Data set [2] can be described thus: Kinetic solubility of the compound at pH 7. It counts as physicochemical. Conditions: buffer, read-out: Kinetic_solubility; call rule not given here.
A short description of data set [3]: Lipophilicity, log D of the compound by HPLC method. It counts as physicochemical.
For data set [4], the target named is Voltage-gated inwardly rectifying potassium channel KCNH2 (Homo sapiens, UniProt Q12809).
Voltage-gated inwardly rectifying potassium channel KCNH2, sequence (Q12809 whole entry): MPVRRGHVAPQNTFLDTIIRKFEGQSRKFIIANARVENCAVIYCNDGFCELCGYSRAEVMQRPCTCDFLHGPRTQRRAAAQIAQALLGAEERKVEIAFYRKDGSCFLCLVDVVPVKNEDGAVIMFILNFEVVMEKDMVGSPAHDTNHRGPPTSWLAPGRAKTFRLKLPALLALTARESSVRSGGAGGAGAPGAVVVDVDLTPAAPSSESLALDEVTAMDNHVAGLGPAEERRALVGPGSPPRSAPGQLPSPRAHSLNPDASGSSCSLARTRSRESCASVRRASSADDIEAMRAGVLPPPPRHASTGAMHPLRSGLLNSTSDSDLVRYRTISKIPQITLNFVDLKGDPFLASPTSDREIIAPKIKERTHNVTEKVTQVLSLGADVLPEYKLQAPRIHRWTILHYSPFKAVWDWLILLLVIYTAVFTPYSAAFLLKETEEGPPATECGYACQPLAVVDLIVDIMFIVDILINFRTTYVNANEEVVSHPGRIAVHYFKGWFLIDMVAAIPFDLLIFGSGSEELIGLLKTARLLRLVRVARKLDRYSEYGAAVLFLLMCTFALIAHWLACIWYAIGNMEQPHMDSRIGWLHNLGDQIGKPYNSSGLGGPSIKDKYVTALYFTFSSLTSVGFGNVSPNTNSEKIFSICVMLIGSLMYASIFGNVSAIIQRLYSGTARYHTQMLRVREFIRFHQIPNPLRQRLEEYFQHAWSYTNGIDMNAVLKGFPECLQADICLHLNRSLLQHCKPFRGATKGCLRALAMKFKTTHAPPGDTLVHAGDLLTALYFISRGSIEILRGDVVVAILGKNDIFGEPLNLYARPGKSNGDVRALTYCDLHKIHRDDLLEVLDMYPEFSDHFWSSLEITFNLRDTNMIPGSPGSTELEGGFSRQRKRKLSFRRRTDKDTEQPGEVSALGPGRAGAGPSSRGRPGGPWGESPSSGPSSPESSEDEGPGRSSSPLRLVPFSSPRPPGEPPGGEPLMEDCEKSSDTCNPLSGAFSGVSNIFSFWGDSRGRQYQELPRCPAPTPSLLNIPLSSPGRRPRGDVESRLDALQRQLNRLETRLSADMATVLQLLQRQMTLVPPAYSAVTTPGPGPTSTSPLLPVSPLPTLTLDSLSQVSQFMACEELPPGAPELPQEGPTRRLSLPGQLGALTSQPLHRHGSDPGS
Data set [5] in a line: Kinetic solubility of the compound at pH 2. It counts as physicochemical. Conditions: buffer, read-out: Kinetic_solubility.
Data set [6] can be described thus: Equilibrium solubility of the compound in simulated gastric fluid using crystalline compound. It counts as physicochemical.
The nature of data set [7]: Equilibrium solubility of the compound in fasted state simulated intestinal fluid using crystalline compound. Format: physicochemical.
Data set [8] in a line: Ratio of total drug level in cerebrospinal fluid to unbound plasma concentration in Sprague-Dawley rat at 10 mg/kg, po. It counts as ADME, organism-based, CSF/Plasma. Conditions: in vivo.
Data set [9] addresses T2, MDR1 (P-gp, ABCB1) (Homo sapiens, UniProt P08183). Kind of data set: Substrate activity at MDR1 (unknown origin) assessed as efflux ratio of permeability from basolateral to apical side over apical to basolateral side. Format: ADME. Conditions: not told.
Data set [10] can be described thus: Clearance in rhesus monkey at 1 mg/kg, po or 0.5 mg/kg, iv. It counts as ADME, organism-based, Macaca mulatta. Conditions: in vivo.
A further data set has as its target Cytochrome P450 3A4 (Homo sapiens, UniProt P08684). Description: Induction of CYP3A4 activity in human hepatocytes at 0.1 to 10 uM. Format: ADME, cell-based.
The nature of data set [11]: Terminal half life in Sprague-Dawley rat at 10 mg/kg, po or 2 mg/kg, iv. Conditions: in vivo, read-out: beta t1/2 (converted). It counts as ADME, organism-based.
The target of data set [12] is T2, MDR1 (P-gp, ABCB1). Kind of data set: Substrate activity at MDR1 (unknown origin) assessed as apparent permeability. Format: ADME. Conditions: not told.
Data set [13] in a line: Inhibition of PDE4 (unknown origin). Also noted: species or system Homo sapiens.
Data set [14] can be described thus: Intrinsic clearance in human microsomes. It counts as ADME, Microsome.
Data set [15] can be described thus: Terminal half life in Mongrel dog at 3 mg/kg, po or 1 mg/kg, iv. It counts as ADME, organism-based, Canis lupus familiaris. Conditions: in vivo, read-out: beta t1/2 (converted).
Data set [16] in a line: Equilibrium solubility of the compound at pH 8 to 10. It counts as physicochemical. Conditions: buffer.
Another data set has as its target Cytochrome P450 2C9 (Homo sapiens, UniProt P11712). Description: Competitive reversible inhibition of CYP2C9 (unknown origin). It counts as ADME.
The nature of data set [17]: Volume of distribution at steady state in Mongrel dog at 3 mg/kg, po or 1 mg/kg, iv. Conditions: in vivo, read-out: Vdss. It counts as ADME, organism-based, Canis lupus familiaris.
A short description of data set [18]: Oral bioavailability in Mongrel dog at 3 mg/kg. Format: ADME, organism-based, Canis lupus familiaris. Conditions: in vivo.
A short description of data set [19]: Clearance in Sprague-Dawley rat at 10 mg/kg, po or 2 mg/kg, iv. It counts as ADME, organism-based. Conditions: in vivo.
In data set [20] the target is T3, Polyunsaturated fatty acid 5-lipoxygenase (Homo sapiens, UniProt P09917).
T3 sequence (P09917 whole entry): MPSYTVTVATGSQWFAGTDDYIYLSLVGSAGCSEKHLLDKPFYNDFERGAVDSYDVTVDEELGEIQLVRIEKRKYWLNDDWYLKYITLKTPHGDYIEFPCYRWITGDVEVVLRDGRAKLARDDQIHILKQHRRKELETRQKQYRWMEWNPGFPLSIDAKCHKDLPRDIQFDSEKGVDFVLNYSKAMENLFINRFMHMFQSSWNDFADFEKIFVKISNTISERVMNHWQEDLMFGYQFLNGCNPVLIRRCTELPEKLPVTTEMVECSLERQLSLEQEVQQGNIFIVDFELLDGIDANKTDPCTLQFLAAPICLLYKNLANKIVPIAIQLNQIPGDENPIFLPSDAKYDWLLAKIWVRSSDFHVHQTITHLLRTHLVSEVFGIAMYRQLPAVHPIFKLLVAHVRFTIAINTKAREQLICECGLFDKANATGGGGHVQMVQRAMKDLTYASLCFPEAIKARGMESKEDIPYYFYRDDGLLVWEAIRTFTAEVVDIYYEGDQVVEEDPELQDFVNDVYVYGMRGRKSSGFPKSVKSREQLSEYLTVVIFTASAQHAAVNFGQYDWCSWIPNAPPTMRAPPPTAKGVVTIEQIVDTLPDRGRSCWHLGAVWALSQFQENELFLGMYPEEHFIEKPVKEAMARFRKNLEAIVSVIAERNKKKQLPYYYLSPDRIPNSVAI
Kind of data set: Inhibition of recombinant human 5-LOX using arachidonic acid as substrate measured after 5 mins by fluorescence assay.

A short description of data set [21]: Volume of distribution at steady state in rhesus monkey at 1 mg/kg, po or 0.5 mg/kg, iv. Format: ADME, organism-based, Macaca mulatta. Conditions: in vivo, read-out: Vdss.
Data set [22] can be described thus: Oral bioavailability in rhesus monkey at 1 mg/kg. It counts as ADME, organism-based, Macaca mulatta. Conditions: in vivo.
Data set [23] can be described thus: Oral bioavailability in Sprague-Dawley rat at 10 mg/kg. It counts as ADME, organism-based. Conditions: in vivo.
The nature of data set [24]: Terminal half life in rhesus monkey at 1 mg/kg, po or 0.5 mg/kg, iv. Conditions: in vivo, read-out: beta t1/2 (converted). Format: ADME, organism-based, Macaca mulatta.
Data set [25] can be described thus: Equilibrium solubility of the compound at pH <4. It counts as physicochemical.
The subject of the next data set is Hepatocyte. Kind of data set: Induction of CYP3A4 mRNA expression in human hepatocytes at 0.1 to 10 uM. Format: ADME, cell-based.
Data set [26] can be described thus: Clearance in Mongrel dog at 3 mg/kg, po or 1 mg/kg, iv. Format: ADME, organism-based, Canis lupus familiaris. Conditions: in vivo.
Data set [27] in a line: Volume of distribution at steady state in Sprague-Dawley rat at 10 mg/kg, po or 2 mg/kg, iv. It counts as ADME, organism-based. Conditions: in vivo, read-out: Vdss.

In brackets after ≈: the same amount, converted by molar mass.

T2 sequence (P08183 whole entry): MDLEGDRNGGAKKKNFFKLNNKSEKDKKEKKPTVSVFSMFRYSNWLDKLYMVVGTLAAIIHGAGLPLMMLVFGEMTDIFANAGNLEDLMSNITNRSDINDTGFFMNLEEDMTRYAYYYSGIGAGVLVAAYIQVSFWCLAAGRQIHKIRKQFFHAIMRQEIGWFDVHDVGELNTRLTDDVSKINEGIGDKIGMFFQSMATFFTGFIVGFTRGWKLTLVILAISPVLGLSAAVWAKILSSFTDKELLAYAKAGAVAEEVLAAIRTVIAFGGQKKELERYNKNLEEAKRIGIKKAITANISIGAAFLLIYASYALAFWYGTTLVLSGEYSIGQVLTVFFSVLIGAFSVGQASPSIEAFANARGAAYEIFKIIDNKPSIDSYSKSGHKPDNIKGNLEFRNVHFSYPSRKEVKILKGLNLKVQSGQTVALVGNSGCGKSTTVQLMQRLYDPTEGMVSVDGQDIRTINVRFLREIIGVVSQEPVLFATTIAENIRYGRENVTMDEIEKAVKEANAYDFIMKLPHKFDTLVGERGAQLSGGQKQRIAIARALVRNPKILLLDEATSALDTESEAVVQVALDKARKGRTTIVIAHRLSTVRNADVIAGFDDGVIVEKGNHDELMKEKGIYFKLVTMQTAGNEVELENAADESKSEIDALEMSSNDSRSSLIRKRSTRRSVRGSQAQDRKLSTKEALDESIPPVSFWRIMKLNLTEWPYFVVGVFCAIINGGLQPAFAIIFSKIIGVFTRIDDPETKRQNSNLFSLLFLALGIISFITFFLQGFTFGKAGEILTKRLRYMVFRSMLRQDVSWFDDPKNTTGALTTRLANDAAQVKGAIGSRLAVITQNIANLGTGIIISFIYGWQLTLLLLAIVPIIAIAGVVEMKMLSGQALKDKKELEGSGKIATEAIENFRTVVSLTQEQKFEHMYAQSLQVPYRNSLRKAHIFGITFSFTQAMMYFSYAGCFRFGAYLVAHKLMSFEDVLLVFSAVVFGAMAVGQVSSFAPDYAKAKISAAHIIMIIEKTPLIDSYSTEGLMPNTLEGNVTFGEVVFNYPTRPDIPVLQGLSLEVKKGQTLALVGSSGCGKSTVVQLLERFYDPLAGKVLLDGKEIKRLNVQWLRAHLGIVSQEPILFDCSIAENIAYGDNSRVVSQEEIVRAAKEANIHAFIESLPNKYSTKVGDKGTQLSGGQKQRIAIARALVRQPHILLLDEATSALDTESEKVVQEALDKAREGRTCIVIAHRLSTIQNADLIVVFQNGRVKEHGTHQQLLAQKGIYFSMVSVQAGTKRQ
Cytochrome P450 2C9, sequence (P11712 whole entry): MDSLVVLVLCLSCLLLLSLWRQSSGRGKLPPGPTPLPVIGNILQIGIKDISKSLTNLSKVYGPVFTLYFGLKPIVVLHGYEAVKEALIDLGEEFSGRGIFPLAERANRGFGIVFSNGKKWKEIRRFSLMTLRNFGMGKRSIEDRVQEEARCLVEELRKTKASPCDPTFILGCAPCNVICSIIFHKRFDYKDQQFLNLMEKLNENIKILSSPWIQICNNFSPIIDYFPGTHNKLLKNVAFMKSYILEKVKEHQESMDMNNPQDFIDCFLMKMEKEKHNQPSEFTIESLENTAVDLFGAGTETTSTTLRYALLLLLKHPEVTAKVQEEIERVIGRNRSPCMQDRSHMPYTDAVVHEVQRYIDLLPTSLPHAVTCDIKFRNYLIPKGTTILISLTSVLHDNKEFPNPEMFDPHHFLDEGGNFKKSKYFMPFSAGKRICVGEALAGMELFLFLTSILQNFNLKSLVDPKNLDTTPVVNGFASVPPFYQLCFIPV
Cytochrome P450 3A4, sequence (P08684 whole entry): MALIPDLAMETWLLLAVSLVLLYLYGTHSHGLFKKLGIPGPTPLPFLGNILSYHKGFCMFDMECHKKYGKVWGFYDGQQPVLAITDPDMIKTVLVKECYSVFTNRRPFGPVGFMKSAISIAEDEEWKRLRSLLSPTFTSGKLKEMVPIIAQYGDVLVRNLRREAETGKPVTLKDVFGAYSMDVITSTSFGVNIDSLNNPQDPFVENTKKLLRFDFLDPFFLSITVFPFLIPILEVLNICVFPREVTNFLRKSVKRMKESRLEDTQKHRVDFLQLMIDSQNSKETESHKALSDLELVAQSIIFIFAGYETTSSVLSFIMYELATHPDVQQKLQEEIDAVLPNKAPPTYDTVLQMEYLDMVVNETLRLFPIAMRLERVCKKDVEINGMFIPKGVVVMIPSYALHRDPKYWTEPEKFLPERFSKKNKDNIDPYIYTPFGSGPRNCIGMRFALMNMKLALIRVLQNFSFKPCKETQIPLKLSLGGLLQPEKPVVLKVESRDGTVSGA

`COc1ccc(Cn2cc3c(=O)onc-3c3ccccc32)cc1`: the IP in [1] was over 100 µM.

Regarding `COc1ccc(Cc2cc3c(=O)n(-c4ccccc4F)cnc3c3ccccc23)cc1`, the IP in data set [1] amounted to 0.82 µM.

The logD is lipophilicity at a set pH, counting ionised and neutral species. Broadly, the IC50 is the concentration at which inhibition is half-maximal. On to `CSc1ccc(Cc2cc3c(=O)n([C@H]4CCCC[C@@H]4O)cnc3c3ccccc23)cn1`, for which the solubility kinetic is under 2 µM in data set [2] and 102 µM (≈ 44 µg/mL) in [5]. In [3], the log distribution coefficient (logD) was found to be 3.2. This compound also had an IC50 in data set [4] of 7.5 µM. In addition, the IP in data set [1] amounted to 0.021 µM.

The solubility (thermodynamic) is solubility found after equilibrating the solid with the medium. Turning to `Cc1ccc(Cc2cc3c(=O)n([C@H]4CCCC[C@@H]4O)cnc3c3ccccc23)cn1.O=C(O)/C=C/C(=O)O`, the solubility (thermodynamic) in [6] was 2300 µg/mL; in data set [7], 40 µg/mL.

For the compound `COc1ccc(Cc2cc3c(=O)n([C@H]4CCCC[C@@H]4O)cnc3c3ccccc23)cc1`, in data set [1], the IP is 0.22 µM.

As to `COc1ccc(Cc2cc3c(c4ccccc24)CN([C@H]2CCCC[C@@H]2O)C3=O)cc1`, the IP in [1] was 0.052 µM.

Turning to `COc1ccc(Cc2cc3c(=O)n(-c4ccccc4F)ccc3c3ccccc23)cc1`, the IP in [1] is 3.3 µM.

For `O=c1c2cc(Cc3cccnc3)c3ccccc3c2ncn1[C@H]1CCCC[C@@H]1O` (relative stereo), the solubility kinetic amounted to 34 µM (≈ 13.1 µg/mL) in data set [2] and 181 µM (≈ 69.8 µg/mL) in [5]. In addition, the Ratio in [8] is 0.5. The compound further came in with a logD in [3] of 2.4. The IC50 in data set [4] came out at 12 µM. Further, the IP in [1] is 0.042 µM.

As for `COc1ccc(Cn2cc3c(=O)n(-c4ccccc4)nc-3c3ccccc32)cc1`, the IP in data set [1] amounted to 8.9 µM.

As usually defined, the efflux ratio is the permeability from basolateral to apical divided by that in the opposite direction, in the common usage. In the case of `O=c1c2cc(Cc3ccc(Cl)nc3)c3ccccc3c2ncn1[C@H]1CCCC[C@@H]1O`, the solubility kinetic in data set [2] and in data set [5] was under 2 µM each time. The Ratio in [8] is 0.9. The same compound gave a logD in data set [3] of 3.1. Also, in data set [4], the IC50 was 13 µM. In addition, in data set [1], the IP was 0.013 to 0.015 µM. In addition, the efflux ratio at MDR1 (P-gp, ABCB1) [9] was found to be 1.1.

As a reminder, the Papp is a coefficient for how fast a substance crosses the barrier. The term CLint scaled denotes the rate of metabolic loss divided by the concentration. The bioavailability is the share of a dose that reaches the circulation, judged against a reference dose that is usually intravenous. With `Cc1ccc(Cc2cc3c(=O)n([C@H]4CCCC[C@@H]4O)cnc3c3ccccc23)cn1` [MK-7622], the clearance in data set [10] turned out to be 7.6 mL/min/kg; in data set [19], 18.9 mL/min/kg; in data set [26], 4.5 mL/min/kg. For the same compound, the figures for the solubility kinetic in data set [2] and in data set [5] were 17 µM (≈ 6.79 µg/mL) and 191 µM (≈ 76.3 µg/mL), respectively. The Activity result on Cytochrome P450 3A4 and in the data set on Hepatocyte was “Not Active” throughout. The half-life in [11] was 1.3 h; in data set [15] it was 8.7 h; in data set [24], 1.8 h. The Papp at MDR1 (P-gp, ABCB1) [12] is 33 ×10⁻⁶ cm/s. In addition, the IC50 in [13] stood at 2.1 µM; on Cytochrome P450 2C9 it was 13.3 µM; in data set [20] it was 4.4 µM. Moreover, the logD in data set [3] is 2.6. The compound further displayed a CLint scaled in [14] of 15 mL/min/kg. Besides, the solubility (thermodynamic) in [16] is under 1 µg/mL; in data set [25], 6000 to 9000 µg/mL (≈ 15 to 22.5 mM). Moreover, the Vd in data set [17] turned out to be 2.4 L/kg; in data set [21], 1.2 L/kg; in data set [27] it was 0.94 L/kg. Moreover, the bioavailability in [18] came out at 76%; in data set [22], 40%; in [23], 56%.

Consider `COc1ccc(Cn2cc3c(=O)n(-c4ccccc4F)nc-3c3ccccc32)cc1`, for which the IP in data set [1] amounted to 0.41 µM.

With `COc1ccc(Cn2cc3c(=O)[nH]nc-3c3ccccc32)cc1`, the IP in [1] stood at 57 µM.

With `COc1ccc(Cn2cc(C(=O)O)c(=O)c3ccccc32)cc1`, the IP in [1] was 0.66 µM.

In the case of `COc1ccc(Cc2cc3c(=O)n([C@H]4CCCC[C@@H]4O)cnc3c3ccccc23)cn1`, the solubility kinetic was under 3 µM in data set [2] and 71 µM (≈ 29.5 µg/mL) in [5]. For the same compound, the Ratio in data set [8] came to 1. The same compound had a logD in [3] of 3. Moreover, in data set [4], the IC50 turned out to be 6.4 µM. Further, the IP in [1] came out at 0.018 µM.
